From publication PMC5218480 (PLoS ONE, 2017)

Tested on: MV-4-11 cells
Assay: Gene expression microarray analysis (Affymetrix PrimeView) and GSEA
Format: cell-based, human
Parameters: RFU PODN (11730768_x_at) / Fold change /veh PODN (11730768_x_at) / RFU LINC00158 (11744669_a_at) / Fold change /veh LINC00158 (11744669_a_at) / RFU DUSP10 (11751237_a_at) / Fold change /veh DUSP10 (11751237_a_at) / RFU ID3 (11757404_x_at) / Fold change /veh ID3 (11757404_x_at) / RFU PLEKHG5 (11737974_s_at) / Fold change /veh PLEKHG5 (11737974_s_at) / RFU LRRC4B (11730491_at) / Fold change /veh LRRC4B (11730491_at) / RFU GIMAP4 (11747438_a_at) / Fold change /veh GIMAP4 (11747438_a_at) / RFU KRT8 (11758183_x_at) / Fold change /veh KRT8 (11758183_x_at) / RFU CNN1 (11734310_a_at) / Fold change /veh CNN1 (11734310_a_at) / RFU VPS37D (11726825_at) / Fold change /veh VPS37D (11726825_at) / RFU C10orf10 (11716522_x_at) / Fold change /veh C10orf10 (11716522_x_at) / RFU KIR2DL2 /// KIR2DL4 /// KIR2DL5A /// KIR2DL5B /// KIR2DS1 /// KIR2DS2 /// KIR2DS3 /// KIR2DS4 /// KIR3DL3 /// KIR3DL3 /// KIR3DS1 (11738374_at) / Fold change /veh KIR2DL2 /// KIR2DL4 /// KIR2DL5A /// KIR2DL5B /// KIR2DS1 /// KIR2DS2 /// KIR2DS3 /// KIR2DS4 /// KIR3DL3 /// KIR3DL3 /// KIR3DS1 (11738374_at) / RFU C1QL1 (11718748_at) / Fold change /veh C1QL1 (11718748_at) / RFU TMPRSS4 (11747572_a_at) / Fold change /veh TMPRSS4 (11747572_a_at) / RFU HAMP (11756126_x_at) / Fold change /veh HAMP (11756126_x_at) / RFU RNFT2 (11725882_a_at) / Fold change /veh RNFT2 (11725882_a_at) / RFU NR4A2 (11747474_a_at) / Fold change /veh NR4A2 (11747474_a_at) / RFU ABCC12 (11746883_a_at) / Fold change /veh ABCC12 (11746883_a_at) / RFU TMEM136 (11760407_x_at) / Fold change /veh TMEM136 (11760407_x_at) / RFU CLDN22 /// WWC2 (11732394_at) / Fold change /veh CLDN22 /// WWC2 (11732394_at) / RFU HLA-DPB1 (11760878_x_at) / Fold change /veh HLA-DPB1 (11760878_x_at) / RFU SPINT1 (11716480_a_at) / Fold change /veh SPINT1 (11716480_a_at) / RFU GAP43 (11754022_s_at) / Fold change /veh GAP43 (11754022_s_at) / RFU A4GNT (11735810_at) / Fold change /veh A4GNT (11735810_at) / RFU PRB3 (11715151_x_at) / Fold change /veh PRB3 (11715151_x_at) / RFU TUBB4B (11761932_at) / Fold change /veh TUBB4B (11761932_at) / RFU CAPN14 (11732068_a_at) / Fold change /veh CAPN14 (11732068_a_at) / RFU TMCC2 (11721928_a_at) / Fold change /veh TMCC2 (11721928_a_at) / RFU IRGQ (11745062_a_at) / Fold change /veh IRGQ (11745062_a_at) / RFU FAM174B (11720279_a_at) / Fold change /veh FAM174B (11720279_a_at) / RFU TMPRSS4 (11748680_a_at) / Fold change /veh TMPRSS4 (11748680_a_at) / RFU FAM212B (11763350_a_at) / Fold change /veh FAM212B (11763350_a_at) / RFU PLEKHG5 (11743358_a_at) / Fold change /veh PLEKHG5 (11743358_a_at) / RFU ZSCAN30 (11745921_a_at) / Fold change /veh ZSCAN30 (11745921_a_at) / RFU CMKLR1 (11741424_a_at) / Fold change /veh CMKLR1 (11741424_a_at) / RFU LOC101060620 /// MAPK8IP1 (11723275_at) / Fold change /veh LOC101060620 /// MAPK8IP1 (11723275_at) / RFU SPTSSB (11747773_x_at) / Fold change /veh SPTSSB (11747773_x_at) / RFU PRSS12 (11739890_at) / Fold change /veh PRSS12 (11739890_at) / RFU BIN1 (11741810_x_at) / Fold change /veh BIN1 (11741810_x_at) / RFU WNT11 (11732464_a_at) / Fold change /veh WNT11 (11732464_a_at) / RFU C10orf10 (11716521_a_at) / Fold change /veh C10orf10 (11716521_a_at) / RFU C5orf56 (11738089_at) / Fold change /veh C5orf56 (11738089_at) / RFU CYB561 (11721691_x_at) / Fold change /veh CYB561 (11721691_x_at) / RFU ANKRD19P (11752326_a_at) / Fold change /veh ANKRD19P (11752326_a_at) / RFU OR2T12 /// OR2T33 /// OR2T8 (11738714_s_at) / Fold change /veh OR2T12 /// OR2T33 /// OR2T8 (11738714_s_at) / RFU VCAN (11748164_a_at) / Fold change /veh VCAN (11748164_a_at) / RFU JSRP1 (11732532_at) / Fold change /veh JSRP1 (11732532_at) / RFU KRTAP10-11 (11738290_x_at) / Fold change /veh KRTAP10-11 (11738290_x_at) / RFU MYO3A (11730013_a_at) / Fold change /veh MYO3A (11730013_a_at) / RFU EBF3 (11725865_a_at) / Fold change /veh EBF3 (11725865_a_at) / RFU CAMK2N1 (11719241_x_at) / Fold change /veh CAMK2N1 (11719241_x_at) / RFU C5orf56 (11738088_a_at) / Fold change /veh C5orf56 (11738088_a_at) / RFU OLFML3 (11715873_a_at) / Fold change /veh OLFML3 (11715873_a_at) / RFU LOC100653217 /// NTM (11731650_a_at) / Fold change /veh LOC100653217 /// NTM (11731650_a_at) / RFU MAPK11 (11762145_a_at) / Fold change /veh MAPK11 (11762145_a_at) / RFU FIZ1 (11724087_x_at) / Fold change /veh FIZ1 (11724087_x_at) / RFU OASL (11726364_x_at) / Fold change /veh OASL (11726364_x_at) / RFU SOX15 (11748057_x_at) / Fold change /veh SOX15 (11748057_x_at) / RFU CD79A (11719716_a_at) / Fold change /veh CD79A (11719716_a_at) / RFU HIST1H1D (11736915_at) / Fold change /veh HIST1H1D (11736915_at) / RFU CASKIN2 (11723855_a_at) / Fold change /veh CASKIN2 (11723855_a_at) / RFU LOC730098 (11760151_x_at) / Fold change /veh LOC730098 (11760151_x_at) / RFU OR4N2 (11742367_at) / Fold change /veh OR4N2 (11742367_at) / RFU PRRT2 (11749266_a_at) / Fold change /veh PRRT2 (11749266_a_at) / RFU SNX32 (11753110_a_at) / Fold change /veh SNX32 (11753110_a_at) / RFU CDHR5 (11726645_a_at) / Fold change /veh CDHR5 (11726645_a_at) / RFU RCAN1 (11760418_a_at) / Fold change /veh RCAN1 (11760418_a_at) / RFU FAM167A (11723789_a_at) / Fold change /veh FAM167A (11723789_a_at) / RFU FAM26E (11764081_at) / Fold change /veh FAM26E (11764081_at) / RFU ISYNA1 (11749810_s_at) / Fold change /veh ISYNA1 (11749810_s_at) / RFU ACY1 (11761880_at) / Fold change /veh ACY1 (11761880_at) / RFU 11764098_at / Fold change /veh 11764098_at / RFU SAMD14 (11745864_x_at) / Fold change /veh SAMD14 (11745864_x_at) / RFU NPB (11741838_a_at) / Fold change /veh NPB (11741838_a_at) / RFU TMPRSS6 (11731388_a_at) / Fold change /veh TMPRSS6 (11731388_a_at) / RFU KRTAP10-2 (11738614_at) / Fold change /veh KRTAP10-2 (11738614_at) / RFU ARHGAP8 /// PRR5-ARHGAP8 (11727945_x_at) / Fold change /veh ARHGAP8 /// PRR5-ARHGAP8 (11727945_x_at) / RFU KRTAP5-7 /// NADSYN1 (11734609_at) / Fold change /veh KRTAP5-7 /// NADSYN1 (11734609_at) / RFU RASL12 (11751679_a_at) / Fold change /veh RASL12 (11751679_a_at) / RFU CDKN2B (11736163_a_at) / Fold change /veh CDKN2B (11736163_a_at) / RFU PRF1 (11729649_at) / Fold change /veh PRF1 (11729649_at) / RFU, ZNF638 /// ZNF638-IT1 / Fold change vs veh, ZNF638 /// ZNF638-IT1 / RFU, PANK3 / Fold change vs veh, PANK3 / RFU, SH3YL1 / Fold change vs veh, SH3YL1 / RFU, ZEB2 / Fold change vs veh, ZEB2 / RFU, NRIP1 / Fold change vs veh, NRIP1 / RFU, PTTG1IP / Fold change vs veh, PTTG1IP / RFU, CAPN2 / Fold change vs veh, CAPN2 / RFU, MED14 / Fold change vs veh, MED14 / RFU, SNORA58 / Fold change vs veh, SNORA58 / RFU, C1orf63 / Fold change vs veh, C1orf63 / RFU, LRRFIP1 / Fold change vs veh, LRRFIP1 / RFU, NDUFAF7 / Fold change vs veh, NDUFAF7 / RFU, SLC12A2 / Fold change vs veh, SLC12A2 / RFU, IBTK / Fold change vs veh, IBTK / RFU, ESF1 / Fold change vs veh, ESF1 / Fold change vs veh, TMEM50B / RFU, TAOK1 / Fold change vs veh, TAOK1 / RFU, ACBD3 / Fold change vs veh, ACBD3 / RFU, TMA16 / Fold change vs veh, TMA16 / RFU, RWDD3 / Fold change vs veh, RWDD3 / RFU, BCAT1 / Fold change vs veh, BCAT1 / RFU, EDEM3 / Fold change vs veh, EDEM3 / RFU, TMEM33 / Fold change vs veh, TMEM33 / RFU, WDR75 / Fold change vs veh, WDR75 / RFU, AHCTF1 / Fold change vs veh, AHCTF1 / RFU, TFRC / Fold change vs veh, TFRC / RFU, ZDHHC17 / Fold change vs veh, ZDHHC17 / RFU, NOM1 / Fold change vs veh, NOM1 / RFU, ARL8B / Fold change vs veh, ARL8B / RFU, ZBTB11 / Fold change vs veh, ZBTB11 / RFU, TAMM41 / Fold change vs veh, TAMM41 / RFU, KIAA1704 /// LOC100996395 / Fold change vs veh, KIAA1704 /// LOC100996395 / RFU, ING1 / Fold change vs veh, ING1 / RFU, TRMT61B / Fold change vs veh, TRMT61B / RFU, FUBP3 / Fold change vs veh, FUBP3 / RFU, TP53 / Fold change vs veh, TP53 / RFU, TNKS2 / Fold change vs veh, TNKS2 / RFU, ZFP14 / Fold change vs veh, ZFP14 / RFU, ACTR2 / Fold change vs veh, ACTR2 / RFU, PPP3R1 / Fold change vs veh, PPP3R1 / RFU, PIK3R1 / Fold change vs veh, PIK3R1 / RFU, HNRNPA1 / Fold change vs veh, HNRNPA1 / RFU, RNF170 / Fold change vs veh, RNF170 / RFU, ZNF28 / Fold change vs veh, ZNF28 / RFU, RNGTT / Fold change vs veh, RNGTT / RFU, OGT / Fold change vs veh, OGT / RFU, BRD1 / Fold change vs veh, BRD1 / RFU, MARS / Fold change vs veh, MARS / RFU, ZNF655 / Fold change vs veh, ZNF655 / RFU, FAHD1 / Fold change vs veh, FAHD1 / RFU, BDP1 / Fold change vs veh, BDP1 / RFU, LRRCC1 / Fold change vs veh, LRRCC1 / RFU, ARID1A / Fold change vs veh, ARID1A / RFU, ZNF146 / Fold change vs veh, ZNF146 / RFU, ZNF330 / Fold change vs veh, ZNF330 / RFU, GPN3 / Fold change vs veh, GPN3 / RFU, C9orf123 / Fold change vs veh, C9orf123 / RFU, N4BP2L2 / Fold change vs veh, N4BP2L2 / RFU, ARFIP1 / Fold change vs veh, ARFIP1 / RFU, FAM179B / Fold change vs veh, FAM179B / RFU, BCL10 / Fold change vs veh, BCL10 / RFU, UHRF1BP1L / Fold change vs veh, UHRF1BP1L / RFU, BET1 / Fold change vs veh, BET1 / RFU, CNOT2 / Fold change vs veh, CNOT2 / RFU, ZNF268 / Fold change vs veh, ZNF268 / Fold change vs veh, ZNF507 / RFU, DGCR2 / Fold change vs veh, DGCR2 / RFU, WDSUB1 / Fold change vs veh, WDSUB1 / Fold change vs veh, HSP90B1 /// MIR3652 / RFU, ADSS / Fold change vs veh, ADSS / RFU, GK / Fold change vs veh, GK / RFU, ZNF148 / Fold change vs veh, ZNF148 / RFU, TAF9 / Fold change vs veh, TAF9 / RFU, SLC1A5 / Fold change vs veh, SLC1A5 / RFU, SLMO2 / Fold change vs veh, SLMO2 / RFU, ABCC4 / Fold change vs veh, ABCC4 / RFU, LOC101060439 /// RAP1B / Fold change vs veh, LOC101060439 /// RAP1B / RFU, RFX7 / Fold change vs veh, RFX7 / RFU, GTPBP10 / Fold change vs veh, GTPBP10 / RFU, CNEP1R1 / Fold change vs veh, CNEP1R1 / RFU, BIVM-ERCC5 /// ERCC5 / Fold change vs veh, BIVM-ERCC5 /// ERCC5 / RFU, ILF3 / Fold change vs veh, ILF3 / RFU 11762660_at / Fold change /veh 11762660_at / RFU VCAN (11757783_s_at) / Fold change /veh VCAN (11757783_s_at) / RFU DDX43 (11728927_at) / Fold change /veh DDX43 (11728927_at) / RFU KRT8 (11758188_x_at) / Fold change /veh KRT8 (11758188_x_at) / RFU NKD1 (11759106_at) / Fold change /veh NKD1 (11759106_at) / RFU SRD5A1 (11742802_a_at) / Fold change /veh SRD5A1 (11742802_a_at) / RFU TPSAB1 /// TPSB2 (11721975_s_at) / Fold change /veh TPSAB1 /// TPSB2 (11721975_s_at) / RFU GSTM3 (11746129_a_at) / Fold change /veh GSTM3 (11746129_a_at) / RFU IL23R (11737362_x_at) / Fold change /veh IL23R (11737362_x_at) / RFU TMEM51 (11727254_a_at) / Fold change /veh TMEM51 (11727254_a_at) / RFU PIWIL2 (11732686_x_at) / Fold change /veh PIWIL2 (11732686_x_at) / RFU ORM1 (11744905_x_at) / Fold change /veh ORM1 (11744905_x_at) / RFU CCDC152 (11743942_at) / Fold change /veh CCDC152 (11743942_at) / RFU ECM1 (11717891_a_at) / Fold change /veh ECM1 (11717891_a_at) / RFU IL23R (11748794_a_at) / Fold change /veh IL23R (11748794_a_at) / RFU TNFAIP8L3 (11732012_x_at) / Fold change /veh TNFAIP8L3 (11732012_x_at) / RFU MBOAT4 (11741988_at) / Fold change /veh MBOAT4 (11741988_at) / RFU 11764193_at / Fold change /veh 11764193_at / RFU TMEM53 (11763286_at) / Fold change /veh TMEM53 (11763286_at) / RFU MAGEB2 (11727129_at) / Fold change /veh MAGEB2 (11727129_at) / RFU TMEM200A (11744735_a_at) / Fold change /veh TMEM200A (11744735_a_at) / RFU CCDC152 (11751479_a_at) / Fold change /veh CCDC152 (11751479_a_at) / RFU FAM211A (11726209_a_at) / Fold change /veh FAM211A (11726209_a_at) / RFU RGS16 (11746705_a_at) / Fold change /veh RGS16 (11746705_a_at) / RFU VCAN (11755009_s_at) / Fold change /veh VCAN (11755009_s_at) / RFU RHOB (11743442_s_at) / Fold change /veh RHOB (11743442_s_at) / RFU RGS16 (11720943_a_at) / Fold change /veh RGS16 (11720943_a_at) / RFU RGS16 (11720944_at) / Fold change /veh RGS16 (11720944_at) / RFU, VPS4B / Fold change vs veh, VPS4B / RFU, CREB1 / Fold change vs veh, CREB1 / RFU, DNAJC13 / Fold change vs veh, DNAJC13 / RFU, GNAQ / Fold change vs veh, GNAQ / RFU, CDK5R1 / Fold change vs veh, CDK5R1 / RFU, ZRANB3 / Fold change vs veh, ZRANB3 / RFU, CUL4A / Fold change vs veh, CUL4A / RFU, CCNY / Fold change vs veh, CCNY / RFU, UFL1 / Fold change vs veh, UFL1 / RFU, COG3 / Fold change vs veh, COG3 / RFU, DIAPH2 / Fold change vs veh, DIAPH2 / RFU, SKA2 / Fold change vs veh, SKA2 / RFU, AFF3 / Fold change vs veh, AFF3 / RFU, LMF1 / Fold change vs veh, LMF1 / RFU, IPO11 / Fold change vs veh, IPO11 / RFU, DFFB / Fold change vs veh, DFFB / RFU, FOXP1 / Fold change vs veh, FOXP1 / RFU, CARD8 / Fold change vs veh, CARD8 / RFU, STRN3 / Fold change vs veh, STRN3 / RFU, ADK / Fold change vs veh, ADK / RFU, RASSF2 / Fold change vs veh, RASSF2 / RFU, WIPF1 / Fold change vs veh, WIPF1 / RFU, LARP1B / Fold change vs veh, LARP1B / RFU, RASA1 / Fold change vs veh, RASA1 / RFU, RB1 / Fold change vs veh, RB1 / RFU, PPFIA1 / Fold change vs veh, PPFIA1 / RFU, MAT2A / Fold change vs veh, MAT2A / RFU, CCT5 / Fold change vs veh, CCT5 / RFU, WDR92 / Fold change vs veh, WDR92 / RFU, CUX1 / Fold change vs veh, CUX1 / RFU, TTC7A / Fold change vs veh, TTC7A / RFU, TMEM135 / Fold change vs veh, TMEM135 / RFU, DEPTOR / Fold change vs veh, DEPTOR / RFU, CPM / Fold change vs veh, CPM / RFU, DNAJB6 / Fold change vs veh, DNAJB6 / RFU, CACNA2D3 / Fold change vs veh, CACNA2D3 / RFU, DTX4 / Fold change vs veh, DTX4 / RFU, TFCP2 / Fold change vs veh, TFCP2 / RFU, GMCL1 /// GMCL1P1 / Fold change vs veh, GMCL1 /// GMCL1P1 / RFU, AEBP2 / Fold change vs veh, AEBP2 / RFU, SNHG1 /// SNORD22 /// SNORD25 /// SNORD26 /// SNORD27 /// SNORD28 /// SNORD29 /// SNORD31 / Fold change vs veh, SNHG1 /// SNORD22 /// SNORD25 /// SNORD26 /// SNORD27 /// SNORD28 /// SNORD29 /// SNORD31 / Fold change (Aza/veh), C12orf56 (ProbeSet 11735607_a_at) / Fold change (ACY-1035/veh), C12orf56 (ProbeSet 11735607_a_at) / Fold change (Aza/veh), FGFR1OP (ProbeSet 11751329_s_at) / Fold change (ACY-1035/veh), FGFR1OP (ProbeSet 11751329_s_at) / Fold change (Aza/veh), VPS36 (ProbeSet 11739960_a_at) / Fold change (ACY-1035/veh), VPS36 (ProbeSet 11739960_a_at) / RFU SYPL1 (11715823_x_at) / Fold change /veh SYPL1 (11715823_x_at) / RFU IGFBP7 (11715501_s_at) / Fold change /veh IGFBP7 (11715501_s_at) / RFU REEP3 (11722064_at) / Fold change /veh REEP3 (11722064_at) / RFU IGLL1 (11728026_x_at) / Fold change /veh IGLL1 (11728026_x_at): dose or concentration left out as unconfirmed
Settings: ProbeSet 11728443_a_at; LIST B

Question: For `Nc1ccc(-c2cccs2)cc1NC(=O)c1ccc2c(c1)cc(C1CC1)n2CCN1CCOCC1` [ACY-1035], which “Fold change vs veh, TAOK1” value is on record?
Answer: 0.89
